Experimental data taken from patent publication US8829195B2, “Compounds and compositions for inhibiting the activity of ABL1, ABL2 and BCR-ABL1” (Novartis AG, priority 2012, dated 2014).

Legend:
KCL-22 xenograft [1] = test: In vivo efficacy in KCL-22 xenograft model, dual agent treatment; design: species or system mouse
Description: In Vivo Efficacy in KCL-22 Xenograft Model—Dual Agent Treatment 6-8 week old female nude mice purchased from Harlan (Indianapolis Ind.) were implanted subcutaneously with 2×10^6 KCL-22 cells in 50% matrigel (BD Biosciences, #354234) in the right dorsal axillary region. […] Compounds of the invention in a phosphate-buffered saline solution were prepared weekly and dosed by oral gavage at 30 mg/kg twice daily, and Nilotinib solution was dosed at 75 mg/kg twice daily. Animals received either single agent alone or combination of both simultaneously. Tumor volume was determined by twice weekly digital calipering and calculated as Length×Width^2/2.

KCL-22 xenograft [2] = test: In vivo efficacy in KCL-22 xenograft model, single agent treatment; design: species or system mouse
Description: In Vivo Efficacy in KCL-22 Xenograft Model—Single Agent Treatment Compounds of the invention were dosed orally in a mouse KCL-22 xenograft model for 7 days. 6-8 week old female nude mice purchased from Harlan (Indianapolis Ind.) were implanted subcutaneously with 5×10^6 KCL-22 cells in 50% matrigel (BD Biosciences, #354234) in the right dorsal axillary region. […] Compounds of the invention in phosphate buffered saline were prepared weekly and dosed by oral gavage at 3-30 mg/kg twice daily (n=6 mice per dose level). Tumor volume was determined by twice weekly digital calipering and calculated as Length×Width^2/2.

[3] = molecular target: T1, Ba/F3-BCR-ABL1-T315I cells (Homo sapiens, UniProt P00519, T315I, cells depend on it); test: Ba/F3-BCR-ABL1-T315I cell proliferation assay; type: cell-based, murine; conditions: 48 hours; read-out: Ba/F3-BCR-ABL1-T315I IC50
T1 construct: A similar approach was used to generate Ba/F3 cells that depend on a BCR-ABL1 variant in which threonine 315 is replaced with isoleucine; fused on or other part: P11274 (Breakpoint cluster region protein)

ABL1 (64-515) [4] = molecular target: T2, ABL1 (64-515) (Homo sapiens, UniProt P00519); test: Caliper ABL1 (64-515) microfluidic mobility shift assay; type: biochemical; conditions: Table of Biochemical Data
T2 construct: 3.5 nM ABL (ABL(64-515), produced in-house from E. coli); His6 followed by a PreScission protease cleavage site (N, cleaved yes); made in house; host or cells: E. coli (BL21 (DE3) according to b733)
Description: All assays were performed in 384-well microtiter plates. Each assay plate contained 8-point serial dilutions for 40 test compounds, as well as four 8-point serial dilutions of staurosporine as a reference compound, plus 16 high and 16 low controls. Liquid handling and incubation steps were done on a Thermo CatX workstation equipped with Innovadyne Nanodrop Express. Between pipetting steps, tips were cleaned in wash cycles using wash buffer.
The assay plates were prepared by addition of 50 mL per well of compound solution in 90% DMSO. […] Plates with terminated kinase reactions were transferred to the Caliper LC3000 workstations for reading. Phosphorylated and unphosphorylated peptides were separated using the Caliper microfluidic mobility shift technology. Briefly, samples from terminated kinase reactions were applied to the chip. Analytes are transported through the chip by constant buffer flow and the migration of the substrate peptide is monitored by the fluorescence signal of its label. Phosphorylated peptide (product) and unphosphorylated peptide (substrate) are separated in an electric field by their charge/mass ratio. Kinase activities were calculated from the amounts of formed phospho-peptide. IC50 values were determined from percent inhibition values at different compound concentrations by non-linear regression analysis.
Preparation of compound dilutions: Test compounds were dissolved in DMSO (10 mM) and transferred into 1.4 mL flat bottom or V-shaped Matrix tubes carrying a unique 2D matrix. The stock solutions were stored at +2° C. if not used immediately. For the test procedure the vials were defrosted and identified by a scanner whereby a working sheet was generated that guided the subsequent working steps.
Compound dilutions were made in 96-well plates. This format enabled the assay of maximally 40 individual test compounds at 8 concentrations (single points) including 4 reference compounds. The dilution protocol included the production of “pre-dilution plates”, “master plates” and “assay plates”.
Pre-dilution plates: Polypropylene 96-well plates were used as pre-dilution plates. […] All dilution steps were done on a HamiltonSTAR robot.
These plates were used directly for the assay which was performed in a total volume of 9.05 μL.

Ba/F3-BCR-ABL1-WT cells = molecular target: T3, Ba/F3-BCR-ABL1-WT cells (Homo sapiens, UniProt P00519); test: Ba/F3-BCR-ABL1-WT cell proliferation assay; type: cell-based, murine; conditions: 48 hours; read-out: Ba/F3-BCR-ABL1-WT IC50
T3 construct: fused on or other part: P11274 (Breakpoint cluster region protein)
Description: To generate Ba/F3 cells that depend on BCR-ABL1 expression for growth and survival, Ba/F3 cells were engineered to express BCR-ABL1 using retroviral transduction with a MSCV based retroviral vector containing a p210 BCR-ABLlexpression cassette. […] These cells are referred to as Ba/F3-BCR-ABL-WT.
Ba/F3-WT cells were maintained in RPMI1640 media with L-glutamine, HEPES (Lonza), 10% FBS (Gibco) and 5 ng/ml IL-3 (Calbiochem). Ba/F3-BCR-ABL1-WT cells and Ba/F3-BCR-ABL1-T315I cells were manitained in RPMI1640 media with L-glutamine, HEPES (Lonza) and 10% FBS (Gibco).
For each cell line, the cell density was adjusted to 50 000 cells/mL and 50 μL (2500 cells) added per well of a 384-well assay plate.
Test compounds were resuspended in DMSO at a concentration of 10 mM. A serial three-fold dilution of each compound with DMSO was performed in 384-well plates using the Janus Liquid Dispenser (PerkinElmer). Compound was delivered to the assay plates containing 2500 cells in a 50 μL volume via Acoustic delivery from an ATS-100 (EDC).
Cells were incubated at 37° C. in a humidified environment with 5% carbon dioxide for 48 hours. Britelite plus solution (Perkin Elmer) was prepared according to the manufacturer's instructions and 25 μL added to each well of the assay plate. […] The degree of luminescence correlates with the number of cells in each well. The effect of each inhibitor concentration can therefore be calculated and IC50 values generated.

ABL1 (64-515) [5] = molecular target: T2, ABL1 (64-515); test: Radio ABL1 (64-515) radiometric filter-binding assay; type: biochemical
Description: Expression and purification of protein kinase—Expression and purification of human ABL was performed using standard expression purification procedures. […] The His-ABL was expressed in E. coli BL21 (DE3) and the ABL proteins were isolated by Ni-affinity on a Ni-NTA column (Qiagen). The His-tag was removed by PreScission protease (GE Healthcare) and the non-phosphoprylated ABL further purified on a Mono Q HR 10/10 (GE Healthcare, mono-phosphorylated ABL is about 10-20% of total ABL protein) and HiLoad 16/60 Superdex 200 size exclusion column (GE Healthcare).
For determination of ABL kinase activity, the radiometric filter-binding assay was used. […] 10 μL of enzyme (ranging between 5 nM to 20 nM) was added to initiate the reaction. Pre-incubation of enzyme with compounds (when stated) was performed by exposing the enzyme to compounds prior to addition of the substrate mixture (ATP and/or peptide substrate). […] Filter-plates were washed 3× with 0.5% H3PO4, followed by addition of 30 μL scintillation cocktail (Microscint, Perkin Elmer) per well and then analysed in a TopCount NXT scintillation counter (Perkin Elmer). Results were expressed as IC50 values.

[6] = Estimation of human PK parameters and efficacious dose from in vivo PK; conditions: estimated from in vivo PK
Source text: In vivo PK parameters can be utilized for the estimation of human PK parameters. Applying various methods known in the art for prediction of human PK, the predicted human clearance can be estimated.

Compound | GI50 [3] [nM] | IC50 (ABL1 (64-515) [4]) [nM] | GI50 (Ba/F3-BCR-ABL1-WT cells) [nM] | IC50 (ABL1 (64-515) [5]) [nM] | further results
Cc1cn(-c2cc(NC(=O)c3ccc(C)c(Nc4nccc(-c5cccnc5)n4)c3)cc(C(F)(F)F)c2)cn1 [nilotinib] |  |  |  |  | tumor regression (KCL-22 xenograft [1]; nilotinib alone 75 mg/kg twice daily, after 4 week daily treatment): > 84%; tumor volume on relapse (KCL-22 xenograft [1]; nilotinib alone, after the 4 week response, most tumors): > 500 mm^3; tumor regression (KCL-22 xenograft [2]; 75 mg/kg twice daily, positive control): 82%
O=C(Nc1ccc(OC(F)(F)Cl)cc1)c1ccc(N2CC[C@@H](O)C2)c(-c2[nH]ncc2F)c1 [Example 24, (R)—N-(4-(Chlorodifluoromethoxy)phenyl)-3-(4-fluoro-1H-pyrazol-5-yl)-4-(3-hydroxypyrrolidin-1-yl)benzamide] | 22 | 0.4 | 1.1 | 5 | 
Cn1ccc(-c2cc(C(=O)Nc3ccc(OC(F)(F)Cl)cc3)cnc2N2CC[C@@H](O)C2)n1 [Example 28, (R)—N-(4-(Chlorodifluoromethoxy)phenyl)-6-(3-hydroxypyrrolidin-1-yl)-5-(1-methyl-1H-pyrazol-3-yl)nicotinamide] | 150 | 1.9 | 7.5 | 2.8 | 
O=C(Nc1ccc(SC(F)(F)F)cc1)c1cnc(N2CC[C@@H](O)C2)c(-c2ccn[nH]2)c1 [Example 11, (R)-6-(3-Hydroxypyrrolidin-1-yl)-5-(1H-pyrazol-5-yl)-N-(4-((trifluoromethyl)thio)phenyl)nicotinamide] | 38 | < 0.13 | 1 | < 3 | 
O=C(Nc1ccc(OC(F)(F)F)c(F)c1)c1cnc(N2CC[C@H](CO)C2)c(-c2ccn[nH]2)c1 [Example 14, (S)—N-(3-Fluoro-4-(trifluoromethoxy)phenyl)-6-(3-(hydroxymethyl)pyrrolidin-1-yl)-5-(1H-pyrazol-5-yl)nicotinamide] | 218 | 0.9 | 18.9 | 10 | 
O=C(Nc1ccc(C(F)(F)C(F)(F)F)cc1)c1cnc(N2CC[C@@H](O)C2)c(-c2ccn[nH]2)c1 [Example 16, (R)-6-(3-Hydroxypyrrolidin-1-yl)-N-(4-(perfluoroethyl)phenyl)-5-(1H-pyrazol-5-yl)nicotinamide] | 92 | < 0.13 | 4.1 | 12 | 
O=C(Nc1ccc(OC(F)(F)Cl)cc1)c1cnc(N2CC[C@@H](O)C2)c(-c2ccn[nH]2)c1 [Example 9, (R)—N-(4-(Chlorodifluoromethoxy)phenyl)-6-(3-hydroxypyrrolidin-1-yl)-5-(1H-pyrazol-5-yl)nicotinamide] |  |  |  |  | predicted human clearance [6]: 3 mL/min/kg; Vd ([6]; human, read-out: volume of distribution (human, estimated)): 1 L/kg; response of nilotinib resistant tumors (FIG. 3) (KCL-22 xenograft [1]; 30 mg/kg BID after resistance to 75 mg/kg Nilotinib BID): regression of the tumors; tumor growth inhibition compared to vehicle-treated mice (KCL-22 xenograft [2]; 3 mg/kg twice daily, oral, 7 days): 45%; tumor regression (KCL-22 xenograft [2]; 7.5 mg/kg twice daily, oral, 7 days): 56%; tumor regression (KCL-22 xenograft [2]; 15 mg/kg twice daily, oral, 7 days): 88%; tumor regression (KCL-22 xenograft [2]; 30 mg/kg twice daily, oral, 7 days): 92%; antitumor activity (FIG. 2) (KCL-22 xenograft [2]; daily treatment, subcutaneous KCL-22 xenografts): Dose-dependent antitumor activity
O=C(Nc1ccc(OC(F)(F)F)cc1)c1cnc(N2CC[C@H](CO)C2)c(-c2ccn[nH]2)c1 [Example 7, (S)-6-(3-(Hydroxymethyl)pyrrolidin-1-yl)-5-(1H-pyrazol-5-yl)-N-(4-(trifluoromethoxy)phenyl)nicotinamide] | 132 | 0.4 | 6 | < 3 | 
Cc1cn[nH]c1-c1cc(C(=O)Nc2ccc(OC(F)(F)Cl)cc2)cnc1N1CC[C@@H](O)C1 [Example 33, (R)—N-(4-(Chlorodifluoromethoxy)phenyl)-6-(3-hydroxypyrrolidin-1-yl)-5-(4-methyl-1H-pyrazol-5-yl)nicotinamide] | 32 | 0.6 | 1.5 | 6 | 
O=C(Nc1ccc(S(F)(F)(F)(F)F)cc1)c1cnc(N2CC[C@@H](O)C2)c(-c2ccn[nH]2)c1 [Example 17, (R)-6-(3-Hydroxypyrrolidin-1-yl)-N-(4-(pentafluorosulfanyl)phenyl)-5-(1H-pyrazol-5-yl)nicotinamide] | 199 | 2.4 | 15.5 | 3 | 
